# Organism: Mus musculus
# Test: Minimum effective dose (MED) of compound against P388 Leukemia in mice was determined
# Assay type: functional
# Conditions: read-out: MED
row,Structure (SMILES),minimal effective dose [mg/kg]
1,CO[C@@]12C(COC(N)=O)C3=C(C(=O)C(C)=C(NCCS)C3=O)N1CC1NC12 (some centres undefined),0.2
2,CO[C@@]12C(COC(N)=O)C3=C(C(=O)C(C)=C(NC=[N+](C)C)C3=O)N1CC1NC12 (some centres undefined),0.05
3,CO[C@@]12C(COC(N)=O)c3c(O)c(N=C4C=CC(=O)C=C4)c(C)c(O)c3N1CC1NC12 (some centres undefined),0.1
4,CO[C@@]12[C@H](COC(N)=O)C3=C(C(=O)C(C)=C(N)C3=O)N1C[C@@H]1N[C@@H]12 [MITOMYCIN],0.2

# Reference: ChEMBL document CHEMBL1124183, “Conformations of complexes between mitomycins and decanucleotides. 3. Sequence specificity, binding at C-10, and mitomycin analogues” (1988)
